How the values were obtained:
[1] = tested on: rice; assay: Test B flooded paddy test; format: in vivo, Oryza sativa; settings: Flood, scale of 0 to 100 where 0 is no effect and 100 is complete control
How it was run: (§1)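 Scoring: visual, compared with untreated controls, 0 = no effect through 100 = complete control, taken 13 to 15 days after treatment in the greenhouse. Compounds had been added to paddy water over soil flooded 3 cm deep at the plants' 2-leaf stage.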

[2] = tested on: barnyardgrass; assay: Test A pre-/postemergence herbicide test; format: in vivo, Echinochloa crus-galli; settings: for Plant response rating, Barnyardgrass: 0 to 100 scale
How it was run: (§2)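 Scoring was visual, relative to untreated controls, on a 0–100 scale after about 10 greenhouse days. Preemergence treatment used a directed soil spray over seeded loam/sand; postemergence treatment targeted one- to two-leaf plants of 2–10 cm.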

[3] = tested on: crabgrass, large; assay: Test A pre-/postemergence herbicide test; format: in vivo, Digitaria sanguinalis; settings: for Plant response rating, Crabgrass, Large: 0 to 100 scale
How it was run: as §2

[4] = tested on: corn; assay: Test A pre-/postemergence herbicide test; format: in vivo, Zea mays; settings: for Plant response rating, Corn: 0 to 100 scale
How it was run: as §2

[5] = tested on: pigweed; assay: Test A pre-/postemergence herbicide test; format: in vivo, Amaranthus retroflexus; settings: for Plant response rating, Pigweed: 0 to 100 scale
How it was run: as §2

[6] = tested on: velvetleaf; assay: Test A pre-/postemergence herbicide test; format: in vivo, Abutilon theophrasti; settings: for Plant response rating, Velvetleaf: 0 to 100 scale
How it was run: as §2

[7] = tested on: morningglory; assay: Test A pre-/postemergence herbicide test; format: in vivo, Ipomoea spp.; settings: for Plant response rating, Morningglory: 0 to 100 scale
How it was run: as §2

[8] = tested on: sedge, umbrella; assay: Test B flooded paddy test; format: in vivo, Cyperus difformis; settings: Flood, scale of 0 to 100 where 0 is no effect and 100 is complete control
How it was run: as §1

[9] = tested on: barnyardgrass; assay: Test B flooded paddy test; format: in vivo, Echinochloa crus-galli; settings: Flood, scale of 0 to 100 where 0 is no effect and 100 is complete control
How it was run: as §1

[10] = tested on: wheat; assay: Test A pre-/postemergence herbicide test; format: in vivo, Triticum aestivum; settings: for Plant response rating, Wheat: 0 to 100 scale
How it was run: as §2

[11] = tested on: ducksalad; assay: Test B flooded paddy test; format: in vivo, Heteranthera limosa; settings: Flood, scale of 0 to 100 where 0 is no effect and 100 is complete control
How it was run: as §1

[12] = tested on: giant foxtail; assay: Test A pre-/postemergence herbicide test; format: in vivo, Setaria faberii; settings: for Plant response rating, Foxtail, Giant: 0 to 100 scale
How it was run: as §2

[13] = 125 g ai/ha, visual rating, 0 no effect, 100 complete control, approximately 10 days, preemergence
[14] = Postemergence, 125 g ai/ha, 0 is no effect, 100 is complete control
[15] = preemergence, 500 g ai/ha, 0 is no effect and 100 is complete control

Structure (SMILES) | Plant response rating, Rice ([1]; 250 g ai/ha) | Plant response rating, Rice ([1]; 1000 g ai/ha) | Plant response rating, Barnyardgrass [2, 13] | Plant response rating, Barnyardgrass [2, 14] | Barnyardgrass plant response rating (0 to 100 scale, 0 is no effect, 100 is complete control) ([2]; Postemergence, 500 g ai/ha) | Plant response rating, Barnyardgrass [2, 15] | Plant response rating, Crabgrass, Large [3, 13] | Plant response rating, Crabgrass, Large [3, 14] | Crabgrass, Large plant response rating (0 to 100 scale, 0 is no effect, 100 is complete control) ([3]; Postemergence, 500 g ai/ha) | Plant response rating, Crabgrass, Large [3, 15] | Plant response rating, Corn [4, 13] | Plant response rating, Corn [4, 14] | Corn plant response rating (0 to 100 scale, 0 is no effect, 100 is complete control) ([4]; Postemergence, 500 g ai/ha) | Plant response rating, Corn [4, 15] | Plant response rating, Pigweed [5, 13] | Plant response rating, Pigweed [5, 14] | Pigweed plant response rating (0 to 100 scale, 0 is no effect, 100 is complete control) ([5]; Postemergence, 500 g ai/ha) | Plant response rating, Pigweed [5, 15] | Plant response rating, Velvetleaf [6, 13] | Plant response rating, Velvetleaf [6, 14] | other results
COc1cc(C2CNC(=O)C2C(=O)Nc2ccccc2C(F)(F)F)ccc1F (racemic) [Compound 196] | 0 | 0 | 0 | 30 | 80 | 70 | 90 | 70 | 80 | 100 | 0 | 0 | 0 | 0 | 0 | 0 | 0 | 0 | 0 | 0 | Velvetleaf plant response rating (0 to 100 scale, 0 is no effect, 100 is complete control) ([6]; Postemergence, 500 g ai/ha): 0; Plant response rating, Velvetleaf [6, 15]: 0; Plant response rating, Morningglory [7, 13]: 0; Plant response rating, Morningglory [7, 14]: 0; Morningglory plant response rating (0 to 100 scale, 0 is no effect, 100 is complete control) ([7]; Postemergence, 500 g ai/ha): 0; Plant response rating, Morningglory [7, 15]: 0; Plant response rating, Sedge, Umbrella ([8]; 250 g ai/ha): 0; Plant response rating, Sedge, Umbrella ([8]; 1000 g ai/ha): 0; Plant response rating, Barnyardgrass ([9]; 250 g ai/ha): 0; Plant response rating, Barnyardgrass ([9]; 1000 g ai/ha): 20; Plant response rating, Wheat [10, 13]: 0; Plant response rating, Wheat [10, 14]: 0; Wheat plant response rating (0 to 100 scale, 0 is no effect, 100 is complete control) ([10]; Postemergence, 500 g ai/ha): 0; Plant response rating, Wheat [10, 15]: 0; Plant response rating, Ducksalad ([11]; 250 g ai/ha): 0; Plant response rating, Ducksalad ([11]; 1000 g ai/ha): 90; Plant response rating, Foxtail, Giant [12, 13]: 80; Plant response rating, Foxtail, Giant [12, 14]: 20; Foxtail, Giant plant response rating (0 to 100 scale, 0 is no effect, 100 is complete control) ([12]; Postemergence, 500 g ai/ha): 70; Plant response rating, Foxtail, Giant [12, 15]: 90
COc1ccc(C2CNC(=O)C2C(=O)Nc2cccc(F)c2F)cc1F (racemic) [Compound 198] | 0 | 15 | 50 | 50 | 80 | 90 | 90 | 50 | 80 | 100 | 0 | 0 | 0 | 0 | 0 | 0 | 0 | 0 | 0 | 0 | Velvetleaf plant response rating (0 to 100 scale, 0 is no effect, 100 is complete control) ([6]; Postemergence, 500 g ai/ha): 0; Plant response rating, Velvetleaf [6, 15]: 0; Plant response rating, Morningglory [7, 13]: 0; Plant response rating, Morningglory [7, 14]: 0; Morningglory plant response rating (0 to 100 scale, 0 is no effect, 100 is complete control) ([7]; Postemergence, 500 g ai/ha): 0; Plant response rating, Morningglory [7, 15]: 0; Plant response rating, Sedge, Umbrella ([8]; 250 g ai/ha): 0; Plant response rating, Sedge, Umbrella ([8]; 1000 g ai/ha): 0; Plant response rating, Barnyardgrass ([9]; 250 g ai/ha): 0; Plant response rating, Barnyardgrass ([9]; 1000 g ai/ha): 65; Plant response rating, Wheat [10, 13]: 0; Plant response rating, Wheat [10, 14]: 0; Wheat plant response rating (0 to 100 scale, 0 is no effect, 100 is complete control) ([10]; Postemergence, 500 g ai/ha): 0; Plant response rating, Wheat [10, 15]: 0; Plant response rating, Ducksalad ([11]; 250 g ai/ha): 70; Plant response rating, Ducksalad ([11]; 1000 g ai/ha): 95; Plant response rating, Foxtail, Giant [12, 13]: 50; Plant response rating, Foxtail, Giant [12, 14]: 10; Foxtail, Giant plant response rating (0 to 100 scale, 0 is no effect, 100 is complete control) ([12]; Postemergence, 500 g ai/ha): 60; Plant response rating, Foxtail, Giant [12, 15]: 80
COc1ccc(C2CNC(=O)C2C(=O)Nc2ccccc2C(F)(F)F)cc1F (racemic) [Compound 199] | 0 | 0 | 0 | 50 | 70 | 60 | 90 | 60 | 80 | 100 | 0 | 0 | 0 | 0 | 0 | 0 | 0 | 0 | 0 | 0 | Velvetleaf plant response rating (0 to 100 scale, 0 is no effect, 100 is complete control) ([6]; Postemergence, 500 g ai/ha): 40; Plant response rating, Velvetleaf [6, 15]: 0; Plant response rating, Morningglory [7, 13]: 0; Plant response rating, Morningglory [7, 14]: 0; Morningglory plant response rating (0 to 100 scale, 0 is no effect, 100 is complete control) ([7]; Postemergence, 500 g ai/ha): 0; Plant response rating, Morningglory [7, 15]: 0; Plant response rating, Sedge, Umbrella ([8]; 250 g ai/ha): 0; Plant response rating, Sedge, Umbrella ([8]; 1000 g ai/ha): 0; Plant response rating, Barnyardgrass ([9]; 250 g ai/ha): 20; Plant response rating, Barnyardgrass ([9]; 1000 g ai/ha): 20; Plant response rating, Wheat [10, 13]: 0; Plant response rating, Wheat [10, 14]: 0; Wheat plant response rating (0 to 100 scale, 0 is no effect, 100 is complete control) ([10]; Postemergence, 500 g ai/ha): 0; Plant response rating, Wheat [10, 15]: 0; Plant response rating, Ducksalad ([11]; 250 g ai/ha): 90; Plant response rating, Ducksalad ([11]; 1000 g ai/ha): 80; Plant response rating, Foxtail, Giant [12, 13]: 50; Plant response rating, Foxtail, Giant [12, 14]: 0; Foxtail, Giant plant response rating (0 to 100 scale, 0 is no effect, 100 is complete control) ([12]; Postemergence, 500 g ai/ha): 50; Plant response rating, Foxtail, Giant [12, 15]: 90

— patent US10294202B2, “Pyrrolidinones as herbicides” (FMC Corporation, priority 2013, dated 2019)
